Source: US10301299B2, “Glycosidase inhibitors” (Merck Patent GmbH, priority 2013, dated 2019)
Read-outs that look alike come from different tables or passages of the source.

What was measured:
[1] = molecular target: T1, His-Tagged hOGA (Homo sapiens, UniProt O60502); experiment: Human O-GlcNAcase enzyme inhibition assay; format: biochemical
T1 sequence (O60502 1-916): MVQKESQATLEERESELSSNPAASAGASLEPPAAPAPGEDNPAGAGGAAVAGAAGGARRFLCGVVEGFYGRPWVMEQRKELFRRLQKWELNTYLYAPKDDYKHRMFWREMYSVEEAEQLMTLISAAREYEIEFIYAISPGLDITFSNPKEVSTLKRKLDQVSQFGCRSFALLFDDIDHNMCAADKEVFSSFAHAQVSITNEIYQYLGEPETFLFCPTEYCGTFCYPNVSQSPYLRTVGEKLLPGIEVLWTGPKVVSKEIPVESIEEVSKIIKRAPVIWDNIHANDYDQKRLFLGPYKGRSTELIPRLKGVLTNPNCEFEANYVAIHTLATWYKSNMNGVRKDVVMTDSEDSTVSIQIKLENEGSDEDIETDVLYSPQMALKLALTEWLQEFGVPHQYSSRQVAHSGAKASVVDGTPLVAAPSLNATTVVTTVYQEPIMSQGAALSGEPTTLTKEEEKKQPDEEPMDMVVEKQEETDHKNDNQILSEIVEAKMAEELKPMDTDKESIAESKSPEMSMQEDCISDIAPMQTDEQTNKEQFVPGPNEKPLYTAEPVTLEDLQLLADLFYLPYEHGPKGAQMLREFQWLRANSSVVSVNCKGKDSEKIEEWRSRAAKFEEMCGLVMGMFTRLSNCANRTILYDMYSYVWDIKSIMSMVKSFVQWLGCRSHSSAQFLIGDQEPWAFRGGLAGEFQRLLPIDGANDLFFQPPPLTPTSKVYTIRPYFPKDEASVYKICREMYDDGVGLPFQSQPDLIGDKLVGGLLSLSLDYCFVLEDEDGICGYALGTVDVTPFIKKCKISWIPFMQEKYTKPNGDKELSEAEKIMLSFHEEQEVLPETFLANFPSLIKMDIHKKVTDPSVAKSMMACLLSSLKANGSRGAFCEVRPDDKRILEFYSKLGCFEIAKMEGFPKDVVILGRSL
Protocol: The following reaction components were added to a final volume of 10 μL in Mcllvaine's Buffer (pH 6.5): 20 nM His-Tagged hOGA and 10 μM Fluorescein mono-beta-D-(2-deoxy-2-N-acetyl) glucopyranoside (FL-GlcNAc; Marker Gene Technologies Inc, Part # M1485). […] The amount of fluorescence measured was plotted against the concentration of inhibitor to produce a sigmoidal dose response curve, from which an IC50 was calculated.

[2] = test system: B35 rat neuroblastoma cells; experiment: Cellular O-GlcNAcylation assay (tau O-GlcNAc S400, ICC); format: cell-based; conditions: Neuroblastoma cell, 16 h, tau O-GlcNAcylated at serine 400
Protocol: The following day cells were treated with appropriate concentration of a solution of inhibitor for 16 h at 37° C. in 5% CO2. Cells were fixed in 100 μl 4% paraformaldehyde for 15 min at room temperature, followed by three washes in PBS buffer. The cells were then permeabilized with 0.1% Triton X-100 for 60 min at room temperature. After three washes in PBS the cells were blocked with 10% goat serum containing 1% BSA in PBS buffer for two hours at room temperature. The cells were then incubated with a monoclonal rabbit antibody specific for tau O-GlcNAcylated at serine 400 (Epitomics) at a 1:1000 dilution overnight at 4° C. […] To calculate an EC50 the total peak intensity was plotted against the concentration of inhibitor to produce a sigmoidal dose response curve.

[3] = 20 nM His-Tagged hOGA, 10 μM FL-GlcNAc, pH 6.5, 60 min, read-out: hOGA enzyme inhibition (IC50)

Row | SMILES | IC50 [1, 3] [nM] | EC50 [2] [nM] | IC50 [1] [nM]
1 | CC(=O)Nc1ncc(CN2CCC(Cc3ccccc3)C(F)C2)s1 (single isomer, unassigned) [Compound 52, N-(5-((-4-BENZYL-3-FLUOROPIPERIDIN-1-YL)METHYL)THIAZOL-2-YL)ACETAMIDE] | < 200 |  | 
2 | CC(=O)Nc1ncc(CN2CCC(c3ccccc3)CC2)s1 [Compound 1, N-(5-((4-phenylpiperidin-1-yl)methyl)thiazol-2-yl)acetamide] | < 200 | 200 to 1000 | 
3 | COC(=O)Nc1ncc(CN2CCC(c3ccccc3)CC2)s1 [Compound 2, [5-(4-Phenyl-piperidin-1-ylmethyl)-thiazol-2-yl]-carbamic acid methyl ester] | 1000 to 10000 | > 10000 | 
4 | CCC(=O)Nc1ncc(CN2CCC(c3ccccc3)CC2)s1 [Compound 3, N-(5-((4-phenylpiperidin-1-yl)methyl)thiazol-2-yl)propionamide] | 200 to 1000 |  | 
5 | C=CC(=O)Nc1ncc(CN2CCC(c3ccccc3)CC2)s1 [Compound 4, N-[5-(4-phenyl-piperidin-1-ylmethyl)-thiazol-2-yl]-acrylamide] | 1000 to 10000 |  | 
6 | CCNc1ncc(CN2CCC(c3ccccc3)CC2)s1 [Compound 5, N-ethyl-5-((4-phenylpiperidin-1-yl)methyl)thiazol-2-amine] | > 10000 |  | 
7 | CCCNc1ncc(CN2CCC(c3ccccc3)CC2)s1 [Compound 6, 5-((4-phenylpiperidin-1-yl)methyl)-N-propylthiazol-2-amine] | > 10000 |  | 
8 | Cc1ncc(CN2CCC(c3ccccc3)CC2)s1 [Compound 7, 2-methyl-5-((4-phenylpiperidin-1-yl)methyl)thiazole] | > 10000 |  | 
9 | CCc1ncc(CN2CCC(c3ccccc3)CC2)s1 [Compound 8, 2-ethyl-5-((4-phenylpiperidin-1-yl)methyl)thiazole] | > 10000 |  | 
10 | CC(=O)N(C)c1ncc(CN2CCC(c3ccccc3)CC2)s1 [Compound 9, N-methyl-N-(5-((4-phenylpiperidin-1-yl)methyl)thiazol-2-yl)acetamide] | 1000 to 10000 |  | 
11 | CNC(=O)Nc1ncc(CN2CCC(c3ccccc3)CC2)s1 [Compound 10, 1-methyl-3-(5-((4-phenylpiperidin-1-yl)methyl)thiazol-2-yl)urea] | 1000 to 10000 |  | 
12 | CS(=O)(=O)Nc1ncc(CN2CCC(c3ccccc3)CC2)s1 [Compound 11, N-[5-(4-phenyl-piperidin-1-ylmethyl)-thiazol-2-yl]-methanesulfonamide] | > 10000 |  | 
13 | c1ccc(C2CCN(Cc3cnc(NC4CC4)s3)CC2)cc1 [Compound 12, N-cyclopropyl-5-((4-phenylpiperidin-1-yl)methyl)thiazol-2-amine] | > 10000 |  | 
14 | CC(=O)Nc1ncc(CN2CCC(c3ccccc3)CC2)o1 [Compound 13] | 1000 to 10000 |  | 
15 | CC(=O)Nc1ncc(CN2CCC(c3ccc(C)cc3)CC2)s1 [Compound 14, N-(5-((4-(p-tolyl)piperidin-1-yl)methyl)thiazol-2-yl)acetamide] | < 200 | 200 to 1000 | 
16 | CC(=O)Nc1ncc(CN2CCC(C)CC2)s1 [Compound 15, N-[5-(4-methyl-piperidin-1-ylmethyl)-thiazol-2-yl]-acetamide] | 1000 to 10000 |  | 
17 | COc1ccc(C2CCN(Cc3cnc(NC(C)=O)s3)CC2)cc1 [Compound 16, N-(5-((4-(4-methoxyphenyl)piperidin-1-yl)methyl)thiazol-2-yl)acetamide] | < 200 | 1000 to 10000 | 
18 | CC(=O)Cc1ncc(CN2CCC(c3ccccc3)CC2)s1 [Compound 17] | > 10000 |  | 
19 | CCC(=O)Cc1ncc(CN2CCC(c3ccccc3)CC2)s1 [Compound 18] | > 10000 |  | 
20 | CC(=O)Nc1ncc(CN2CCN(c3ccccc3)CC2)s1 [Compound 19, N-[5-(4-phenyl-piperazin-1-ylmethyl)-thiazol-2-yl]-acetamide] | 200 to 1000 | 1000 to 10000 | 
21 | CC(=O)Nc1ncc(CNCCCc2ccccc2)s1 [Compound 20, N-{5-[(3-phenyl-propylamino)-methyl]-thiazol-2-yl}-acetamide] | 200 to 1000 | 1000 to 10000 | 

Row | SMILES | IC50 [1, 3] [nM] | EC50 [2] [nM] | IC50 [1] [nM]
22 | CC(=O)Nc1ncc(CN2CCC(C#N)(c3ccccc3)CC2)s1 [Compound 23, N-[5-(4-cyano-4-phenyl-piperidin-1-ylmethyl)-thiazol-2-yl]-acetamide] |  |  | > 10000
23 | CC(=O)Nc1ncc(CN2CCC(O)(c3ccccc3)CC2)s1 [Compound 24, N-[5-(4-hydroxy-4-phenyl-piperidin-1-ylmethyl)-thiazol-2-yl]-acetamide] | 1000 to 10000 |  | 
24 | CC(=O)Nc1ncc(CN2CCC(N(C)C)CC2)s1 [Compound 34, N-(5-((4-(dimethylamino)piperidin-1-yl)methyl)thiazol-2-yl)acetamide] | > 10000 |  | 
25 | CC(=O)Nc1ncc(CN2CCC(c3ccccc3C(=O)O)CC2)s1 [Compound 44, 2-(1-((2-acetamidothiazol-5-yl)methyl)piperidin-4-yl)benzoic acid] | > 10000 |  | 
26 | CC(=O)Nc1ncc(CN2CCC(Cc3ccc(Cl)cc3)CC2)s1 [Compound 46, N-(5-((4-(4-chlorobenzyl)piperidin-1-yl)methyl)thiazol-2-yl)acetamide] | < 200 |  | 
27 | CC(=O)Nc1ncc(CN2CCC(Cc3ccc4c(c3)OCO4)CC2)s1 [Compound 47] | < 200 |  | 
28 | CC(=O)Nc1ncc(CN2CCC(Cc3ccc(F)cc3)CC2)s1 [Compound 48, N-(5-((4-(4-FLUOROBENZYL)PIPERIDIN-1-YL)METHYL)THIAZOL-2-YL)ACETAMIDE] | < 200 |  | 
29 | CC(=O)Nc1ncc(CN2CCC(Cc3ccc(C(F)(F)F)cc3)CC2)s1 [Compound 49, N-(5-((4-(4-(TRIFLUOROMETHYL)BENZYL)PIPERIDIN-1-YL)METHYL)THIAZOL-2-YL)ACETAMIDE] | < 200 |  | 
30 | CC(=O)Nc1ncc(CN2CCC(Cc3cccc(F)c3)CC2)s1 [Compound 50, N-(5-((4-(3-FLUOROBENZYL)PIPERIDIN-1-YL)METHYL)THIAZOL-2-YL)ACETAMIDE] | < 200 |  | 
31 | CC(=O)Nc1ncc(CN2CCC(Cc3ccccc3)CC2C)s1 (centres unmarked) [Compound 51, N-(5-((4-BENZYL-2-METHYLPIPERIDIN-1-YL)METHYL)THIAZOL-2-YL)ACETAMIDE] |  |  | < 200
32 | CC(=O)Nc1ncc(CN2CCC(Cc3ccccc3)C(C)C2)s1 (centres unmarked) [Compound 53, N-(5-((4-BENZYL-3-METHYLPIPERIDIN-1-YL)METHYL)THIAZOL-2-YL)ACETAMIDE] | < 200 |  | 
33 | CC(=O)Nc1ncc(CN2CCC(Cc3ccc(C)cc3)CC2)s1 [Compound 54, N-(5-((4-(4-METHYLBENZYL)PIPERIDIN-1-YL)METHYL)THIAZOL-2-YL)ACETAMIDE] |  |  | < 200
34 | COc1ccc(CC2CCN(Cc3cnc(NC(C)=O)s3)CC2)cc1 [Compound 55, N-(5-((4-(4-METHOXYBENZYL)PIPERIDIN-1-YL)METHYL)THIAZOL-2-YL)ACETAMIDE] |  |  | < 200
35 | CC(=O)Nc1ncc(CN2CCC(Cc3ccc4ccccc4c3)CC2)s1 [Compound 56] | < 200 |  | 
36 | CC(=O)Nc1ncc(CN2CCN(C(C)c3ccc4c(c3)OCO4)CC2)s1 (centres unmarked) [Compound 58, N-(5-((4-(1-(BENZO[D][1,3]DIOXOL-5-YL)ETHYL)PIPERAZIN-1-YL)METHYL)THIAZOL-2-YL)ACETAMIDE] | 1000 to 10000 |  | 
37 | CC(c1ccc2c(c1)OCO2)N1CCN(Cc2cnc(N3CCNC(=O)C3)s2)CC1 (centres unmarked) [Compound 59, 4-(5-((4-(1-(BENZO[D][1,3]DIOXOL-5-YL)ETHYL)PIPERAZIN-1-YL)METHYL)THIAZOL-2-YL)PIPERAZIN-2-ONE] | 1000 to 10000 |  | 
38 | CC(=O)Nc1ncc(CN2CCC(Oc3ccccc3)CC2)s1 [Compound 61, N-(5-((4-PHENOXYPIPERIDIN-1-YL)METHYL)THIAZOL-2-YL)ACETAMIDE] | 200 to 1000 |  | 
39 | CC(=O)Nc1ncc(CN2CCC(CCc3ccccc3)CC2)s1 [Compound 62] | < 200 |  | 
40 | CC(=O)Nc1ncc(CN2CCC(Cc3ccc4nccnc4c3)CC2)s1 [Compound 63] | < 200 |  | 
41 | CC(=O)Nc1ncc(CN2CCC(Cc3cc(F)cc(F)c3)CC2)s1 [Compound 64, N-(5-((4-(3,5-DIFLUOROBENZYL)PIPERIDIN-1-YL)METHYL)THIAZOL-2-YL)ACETAMIDE] | < 200 |  | 
